Data taken from patent US20100204158A1, “COMBINATION OF SPLENOPENTIN AND THYMOPENTIN AND THE USE THEREOF IN MEDICINE” (priority 2007, published 2010).
Residues, ends and D or L forms follow the SMILES beside them. No end group written: not given here.

Key:
[1] = test system: hepatitis B virus (HBV) ayw strain; assay: HBV experimental assay system (HepG2-2.2.15, TaqMan PCR of secreted HBV DNA); assay type: cell-based; conditions: 10 micrograms per ml; HepG2-2.2.15, six days, HBV DNA by TaqMan PCR
From the text: HepG2-2.2.15 is a stable cell line containing the hepatitis B virus (HBV) ayw strain genome (ATCC Cat. No. CRL-11997). Antiviral compounds blocking any late step of viral replication such as transcription, translation, pregenome encapsidation, reverse transcription, particle assembly and release can be identified and characterized using this cell line. In this assay, an active compound will reduce the production of secreted HBV from cells, measured by utilizing real time quantitative PCR (TaqMan) assay to directly and accurately measure HBV DNA copies.
HepG2-2.2.15 cells were plated in 96-well microtiter plates. After 16-24 hours the confluent monolayer of HepG2-2.2.15 cells was washed and the medium was replaced with complete medium containing test peptides—10 micrograms per ml—in duplicate. […] Six days following the initial administration of the peptides, the cell culture supernatants was collected, treated with pronase and DNAse and then used in a real-time quantitative TaqMan PCR assay. The PCR-amplified HBV DNA was detected in real-time by monitoring increases in fluorescence signals that result from the exonucleolytic degradation of a quenched fluorescence probe molecule that hybridizes to the amplified HBV DNA. […] Antiviral activity was calculated from the reduction in HBV DNA levels (% virus control). […]

murine spleen cells = assay: Th1/Th2 cytokine profiling assay (Ovalbumin-restimulated spleen cells, CBA kit); assay type: cell-based, Balb/c mice; conditions: 10 micrograms per ml, Ovalbumin restimulation, 72 hours
[2] = test system: Primary Human endothelial cells (HUVEC); assay: Endothelial cell migration assay; assay type: cell-based; conditions: 10 micrograms per ml, 22 hours
HUVEC = assay: Endothelial tube formation assay; assay type: cell-based, human; conditions: 10 micrograms per ml, 20 hours
From the text: Positive control was vehicle only.

HCMV strain AD169 = assay: HCMV plaque formation assay in MRC-5 cells; conditions: for inhibition of HCMV plaque formation as compared to the virus control experiment: 10 micrograms per ml, 7-10 days
HIV-1IIIB = assay: HIV-1 antiviral assay in CEM-SS cells (MTS readout); assay type: cell-based

CC(C)[C@H](NC(=O)[C@H](CC(=O)O)NC(=O)[C@H](CCCCN)NC(=O)[C@@H](N)CCCN=C(N)N)C(=O)N[C@@H](Cc1ccc(O)cc1)C(=O)O [Peptide 2, Arg-Lys-Asp-Val-Tyr-OH] (H-RKDVY-OH)
inhibition of HBV replication as compared to the virus control infection [1]: 6.2%
change of the production of TNF-alpha (in words) (murine spleen cells): did not significantly change
decrease of the production of IFN-gamma (murine spleen cells): 38.0%
decrease of the production of IL-5 (murine spleen cells): 28.2%
induction of the production of IL-2 (murine spleen cells): 22.2%
induction of the production of IL-4 (murine spleen cells): 70.6%
inhibition of the migration of human endothelial cells [2]: 7%
inhibition of the tube formation of human endothelial cells (HUVEC): 31%
inhibition of HCMV plaque formation as compared to the virus control experiment (HCMV strain AD169): 1.4%

CC(C)(C)NC(=O)[C@@H]1CN(Cc2cccnc2)CCN1C[C@@H](O)C[C@@H](Cc1ccccc1)C(=O)N[C@H]1c2ccccc2C[C@H]1O [indinavir]
antiviral activity of positive control compounds (HIV-1) (HIV-1IIIB): expected levels of antiviral activity

Nc1nc(O)c2ncn(COC(CO)CO)c2n1 [Ganciclovir, reference compound]
antiviral activity of positive control compound (HCMV) (HCMV strain AD169; positive control, HCMV AD169): expected levels of antiviral activity

Arg-Lys-Glu-Val-Tyr-OH (RKEVY-OH) [Peptide 1]
inhibition of HBV replication as compared to the virus control infection [1]: 19.5%
change of the production of IL-5 (in words) (murine spleen cells): did not significantly change
change of the production of TNF-alpha (in words) (murine spleen cells): did not significantly change
induction of the production of IFN-γ (murine spleen cells): 38.9%
induction of the production of IL-2 (murine spleen cells): 68.5%
induction of the production of IL-4 (murine spleen cells): 68.1%
inhibition of the migration of human endothelial cells [2]: did not inhibit
inhibition of the tube formation of human endothelial cells (HUVEC): 22%
inhibition of HCMV plaque formation as compared to the virus control experiment (HCMV strain AD169): no effect

Cc1cn([C@H]2C[C@H](N=[N+]=[N-])[C@@H](CO)O2)c(=O)[nH]c1=O [AZT]
antiviral activity of positive control compounds (HIV-1) (HIV-1IIIB): expected levels of antiviral activity
